The text below walks through data of patent US20230302150A1, “ANTIBODY-TLR AGONIST CONJUGATES, METHODS AND USES THEREOF” (Ambrx, Inc., priority 2020, published 2023).

The target in the assay is T1, hTLR7 (Homo sapiens, UniProt Q9NYK1).
T1 construct: expressed in transfected cells; host or cells: HEK-Blue hTLR7 reporter cell line
T1 sequence (Q9NYK1 27-1049): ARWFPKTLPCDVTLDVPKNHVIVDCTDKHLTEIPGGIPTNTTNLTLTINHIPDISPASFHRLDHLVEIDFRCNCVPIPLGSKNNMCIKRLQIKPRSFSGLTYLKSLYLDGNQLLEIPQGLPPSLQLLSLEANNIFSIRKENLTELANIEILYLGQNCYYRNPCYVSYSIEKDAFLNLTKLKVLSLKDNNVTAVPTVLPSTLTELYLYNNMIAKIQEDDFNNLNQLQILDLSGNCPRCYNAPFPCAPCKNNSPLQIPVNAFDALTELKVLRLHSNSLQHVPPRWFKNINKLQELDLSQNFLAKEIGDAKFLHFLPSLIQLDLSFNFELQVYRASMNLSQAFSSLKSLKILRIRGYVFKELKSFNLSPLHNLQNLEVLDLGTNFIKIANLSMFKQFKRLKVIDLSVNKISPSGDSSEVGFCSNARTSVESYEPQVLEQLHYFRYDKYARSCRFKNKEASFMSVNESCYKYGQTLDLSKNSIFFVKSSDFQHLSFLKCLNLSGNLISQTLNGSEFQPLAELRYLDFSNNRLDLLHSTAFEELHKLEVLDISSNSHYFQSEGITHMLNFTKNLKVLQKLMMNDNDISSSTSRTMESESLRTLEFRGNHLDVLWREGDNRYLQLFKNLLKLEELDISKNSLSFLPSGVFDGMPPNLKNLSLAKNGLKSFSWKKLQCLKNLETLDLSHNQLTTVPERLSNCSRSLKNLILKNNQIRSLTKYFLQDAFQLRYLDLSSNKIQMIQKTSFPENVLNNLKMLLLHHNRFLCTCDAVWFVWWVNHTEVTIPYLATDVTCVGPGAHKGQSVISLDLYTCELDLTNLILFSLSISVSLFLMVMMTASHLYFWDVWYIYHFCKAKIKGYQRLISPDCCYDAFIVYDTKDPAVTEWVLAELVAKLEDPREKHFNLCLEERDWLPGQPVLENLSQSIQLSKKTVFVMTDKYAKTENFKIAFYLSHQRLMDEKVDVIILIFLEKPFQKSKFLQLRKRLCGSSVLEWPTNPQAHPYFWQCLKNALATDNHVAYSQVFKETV
In words: HEK-Blue hTLR7 reporter assay (NF-kB-induced SEAP, Quanti-Blue). The assay is classed as cell-based. As for the experimental part:
HEK-Blue™ hTLR7 cells were incubated in HEK-Blue™ Detection medium and stimulated with increasing concentrations of TLR7 or TLR8 or TLR7/8 agonists. […] The EC50 was determined from dose-response curve using Prism Software.

Setting [1] is: Table 11, TLR7 activities, read-out: EC50.
Where [2] appears, read: Table 19, TLR7, drug-linkers with PEG shielding, read-out: EC50.
[3] abbreviates: Table 12, TLR7 agonists attached to a linker, read-out: TLR Agonist Payload + Linkers EC50.

pEC50: −log10 of the molar value. Where two headings read alike, the source gives them in different places.

One may read the pEC50 as the negative decadic logarithm of the EC50, by convention in mol/L. For `CCCCOc1nc(N)c2[nH]c(=O)n(Cc3ccc(CN4CCC(CCNC(C)=O)CC4)cc3)c2n1` [AXC-886, N-(2-(1-(4-((6-amino-2-butoxy-8-oxo-7H-purin-9(8H)-yl)methyl)benzyl)piperidin-4-yl)ethyl)acetamide], the pEC50 under setting [1] is 7.78. `CCCCc1nc2c(N)nc3ccccc3c2n1CCCCNC(=O)c1cc(F)c(NC(=O)[C@H](CCCNC(N)=O)NC(=O)[C@@H](NC(=O)CON)C(C)C)c(F)c1` [AXC-801, N-(4-(4-amino-2-butyl-1H-imidazo[4,5-c]quinolin-1-yl)butyl)-4-((S)-2-((S)-2-(2-(aminooxy)acetamido)-3-methylbutanamido)-5-ureidopentanamido)-3,5-difluorobenzamide]: where the note is “Table 10, read-out: TLR7 EC50”, the pEC50 is below 5.30. For `CCCCOc1nc(N)c2[nH]c(=O)n(Cc3ccc(CN4CCC(CCNC(=O)[C@H](Cc5ccc(O[C@@H]6O[C@H](CO)[C@@H](O)[C@H](O)[C@H]6O)cc5)NC(=O)CON)CC4)cc3)c2n1` [AXC-956, (S)—N-(2-(1-(4-((6-amino-2-butoxy-8-oxo-7,8-dihydro-9H-purin-9-yl)methyl)benzyl)piperidin-4-yl)ethyl)-2-(2-(aminooxy)acetamido)-3-(4-(((2S,3R,4S,5S,6R)-3,4,5-trihydroxy-6-(hydroxymethyl)tetrahydro-2H-pyran-2-yl)oxy)phenyl)propanamide], the pEC50 under setting [2] was 6.80. Take `CCCCOC(=O)Nc1nc(OCCCC)nc2c1[nH]c(=O)n2Cc1ccc(CN2CCC(CCNC(=O)CON)CC2)cc1` [AXC-954, butyl (9-(4-((4-(2-(2-(aminooxy)acetamido)ethyl)piperidin-1-yl)methyl)benzyl)-2-butoxy-8-oxo-8,9-dihydro-7H-purin-6-yl)carbamate]: the pEC50 under setting [2] was 6.95.

Take `CCCCOc1nc(N)c2[nH]c(=O)n(Cc3ccc(CN4CCC(CCNC(=O)[C@H](CCCCNC(=O)CON)NC(=O)CCOCCOCCOCCOCCOCCOCCOCCOC)CC4)cc3)c2n1` [AXC-937, (S)-2-PEG8-N-(2-(1-(4-((6-amino-2-butoxy-8-oxo-7,8-dihydro-9H-purin-9-yl)methyl)benzyl)piperidin-4-yl)ethyl)-6-(2-(aminooxy)acetamido)hexanamide]: under setting [2], the pEC50 is 6.34. Same read-out and setting: under `CCCCOc1nc(NC(C)=O)c2[nH]c(=O)n(Cc3ccc(CN4CCC(C5CCN(C(=O)CON)CC5)CC4)cc3)c2n1` [AXC-981, N-(9-(4-((1′-(2-(aminooxy)acetyl)-4,4′-bipiperidin-1-yl)methyl)benzyl)-2-butoxy-8-oxo-8,9-dihydro-7H-purin-6-yl)acetamide] stands 8.00.

For the compound `CCCCOc1nc(N)c2[nH]c(=O)n(Cc3ccc(CN4CCC(CCNC(=O)[C@H](CCCCNC(=O)CON)NC(=O)OCc5ccc(NC(=O)[C@H](C)NC(=O)[C@@H](NC(=O)CCOCCOCCOCCOCCOCCOCCOCCOCCOCCOCCOCCOCCOCCOCCOCCOCCOCCOCCOCCOCCOCCOCCOCCOC)C(C)C)cc5)CC4)cc3)c2n1` [AXC-925, 4-((S)-2-((S)-3-methyl-2-PEG24-amidobutanamido)propanamido)benzyl ((S)-1-((2-(1-(4-((6-amino-2-butoxy-8-oxo-7,8-dihydro-9H-purin-9-yl)methyl)benzyl)piperidin-4-yl)ethyl)amino)-6-(2-(aminooxy)acetamido)-1-oxohexan-2-yl)carbamate], where the note is “Table 18, TLR7, PEG shielding, read-out: EC50”, the pEC50 was 5.80. In the case of `CCCCOc1nc(N)c2[nH]c(=O)n(Cc3ccc(CN4CCC(CCNC(=O)c5ccc(N)c(OC)c5)CC4)cc3)c2n1` [AXC-895, 4-amino-N-(2-(1-(4-((6-amino-2-butoxy-8-oxo-7H-purin-9(8H)-yl)methyl)benzyl)piperidin-4-yl)ethyl)-3-methoxybenzamide], the “TLR7 activity (comparison in words)” value is listed as “highest potency among different payloads tested”. The pEC50 (Table 13, TLR7, read-out: EC50) was 7.96. In the case of `CCCCOc1nc(N)c2[nH]c(=O)n(Cc3ccc(CN4CCC(CCNC(=O)OC(C)(C)C)CC4)cc3)c2n1` [AXC-877, tert-butyl 2-(1-(4-((6-amino-2-butoxy-8-oxo-7,8-dihydro-9H-purin-9-yl)methyl)benzyl)piperidin-4-yl)ethylcarbamate], the pEC50 is, setting by setting: under setting [1], 8.26; (text to Table 11, TLR7, read-out: EC50) above 8.00. Regarding `CCCCOc1nc(N)c2[nH]c(=O)n(Cc3ccc(CN4CCC(CCNC(=O)[C@H](CCCCNC(=O)CON)NC(=O)CCCC(=O)NCCOCCOCCOCCOCCC(=O)NC(COCCC(=O)NCCOCCOCCOCCOC)(COCCC(=O)NCCOCCOCCOCCOC)COCCC(=O)NCCOCCOCCOCCOC)CC4)cc3)c2n1` [AXC-938, (S)-N1-(1-((2-(1-(4-((6-amino-2-butoxy-8-oxo-7,8-dihydro-9H-purin-9-yl)methyl)benzyl)piperidin-4-yl)ethyl)amino)-6-(2-(aminooxy)acetamido)-1-oxohexan-2-yl)-N5-mPEG4-(PEG4)3-glutaramide], the pEC50 under setting [2] was 6.19. As for `CCCCNc1nc(N)c2[nH]c(=O)n(Cc3ccc(N4CCN(CCNC(=O)CON)CC4)nc3)c2n1` [AXC-867], the pEC50 is 6.08 under setting [3]; 6.08 (Table 15, drug linker, read-out: TLR Agonist + Linker (DL) - EC50); 6.55 (Table 15, pAF containing final metabolite, read-out: TLR Agonist + Linker + nnAA (DL-pAF) - EC50).

Turning to `CCCCOc1nc(N)c2[nH]c(=O)n(Cc3ccc(CN4CCC(C5CCN(C(=O)CCOCCON)CC5)CC4)cc3)c2n1` [AXC-909, 6-amino-9-(4-((1′-(3-(2-(aminooxy)ethoxy)propanoyl)-4,4′-bipiperidin-1-yl)methyl)benzyl)-2-butoxy-7H-purin-8(9H)-one], the pEC50 (Table 14, read-out: TLR7 EC50) was 7.14. Turning to `CCCCOc1nc(N)c2[nH]c(=O)n(Cc3ccc(CN4CCC(CCNC(=O)[C@@H](CCCCNC(=O)CCCC(=O)NCCOCCOCCOCCOCCC(=O)NC(COCCC(=O)NCCOCCOCCOCCOCCOCCOCCOCCOC)(COCCC(=O)NCCOCCOCCOCCOCCOCCOCCOCCOC)COCCC(=O)NCCOCCOCCOCCOCCOCCOCCOCCOC)NC(=O)CON)CC4)cc3)c2n1` [AXC-961, (R)-N1-(6-((2-(1-(4-((6-amino-2-butoxy-8-oxo-7,8-dihydro-9H-purin-9-yl)methyl)benzyl)piperidin-4-yl)ethyl)amino)-5-(2-(aminooxy)acetamido)-6-oxohexyl)-N5-(dPEG4)-(mPEG8)3-glutaramide], under setting [2], the pEC50 is 6.07. Consider `CCCCOc1nc(N)c2[nH]c(=O)n(Cc3ccc(CN4CCC(CCNC(=O)C(C)C)CC4)cc3)c2n1` [AXC-890, N-(2-(1-(4-((6-amino-2-butoxy-8-oxo-7H-purin-9(8H)-yl)methyl)benzyl)piperidin-4-yl)ethyl)isobutyramide], for which, under setting [1], the pEC50 is 7.82.

With `CCCCc1nc2c(N)nc3ccccc3c2n1CCCCNC(=O)c1ccc(F)c(N)c1` [AXC-804, 3-amino-N-(4-(4-amino-2-butyl-1H-imidazo[4,5-c]quinolin-1-yl)butyl)-4-fluorobenzamide], the negative-log EC50 (pEC50) (Table 10, read-out: TLR7 EC50) is 6.58.

For `CCCCc1nc2c(N)nc3ccccc3c2n1CCCCNC(=O)CON` [AXC-910, reference compound], the pEC50 (Table 14, read-out: TLR7 EC50) is 5.59.

For `CCCCc1nc2c(N)nc3cccnc3c2n1CCCCNC(=O)c1ccc(N(C)C)cc1` [AXC-743, N-(4-(4-amino-2-butyl-1H-imidazo[4,5-c][1,5]naphthyridin-1-yl)butyl)-4-(dimethylamino)benzamide], under “Table 10, read-out: TLR7 EC50”, the pEC50 is 7.25. As to `CCCCOc1nc(NC(C)=O)c2[nH]c(=O)n(Cc3ccc(CN4CCC(CCNC(=O)CON)CC4)cc3)c2n1` [AXC-966, N-(2-(1-(4-((6-acetamido-2-butoxy-8-oxo-7,8-dihydro-9H-purin-9-yl)methyl)benzyl)piperidin-4-yl)ethyl)-2-(aminooxy)acetamide], the pEC50 under setting [2] was 7.18.

In the case of `CCCCNc1nc(N)c2[nH]c(=O)n(Cc3ccc(NCCN(C)CCNC(=O)CCOCCOCCOCCOCCON)nc3)c2n1` [AXC-869, NH2O-PEG3-Pr-(6-amino-9-((6-(2-((2-aminoethyl)(methyl)amino)ethylamino)pyridin-3-yl)methyl)-2-(butylamino)-7H-purin-8(9H)-one)acetamide], the pEC50 under setting [3] was below 5.00. With `CCCCOc1nc(NC(C)=O)c2[nH]c(=O)n(Cc3ccc(CN4CCC(CCON)CC4)cc3)c2n1` [AXC-978, N-(9-(4-((4-(2-(aminooxy)ethyl)piperidin-1-yl)methyl)benzyl)-2-butoxy-8-oxo-8,9-dihydro-7H-purin-6-yl)acetamide], the pEC50 under setting [2] is 7.54.
